Measurements reported in US20220176084A1, “MEDICAL DEVICE WITH DRUG-ELUTING COATING ON MODIFIED DEVICE SURFACE” (Bard Peripheral Vascular, Inc., priority 2019, published 2022).

How the values were obtained:
[1] = tested on: protein; conditions: cited from earlier work
[2] = molecular target: albumin (Homo sapiens, UniProt P02768); conditions: share of protein binding; cited from earlier work
[3] = stability under ethylene oxide sterilization, heating and aging; reaction with paclitaxel; conditions: for reaction with paclitaxel: ethylene oxide sterilization, heating, aging
[4] = cited from earlier work
[5] = drug absorption by tissue after brief balloon deployment; assay type: in vivo; conditions: formulated with paclitaxel; 0.2-2 minutes of deployment
Description: Some of the surfactants described herein are very stable under heating. They survive an ethylene oxide sterilization process.
When the chemical compounds described herein are formulated with paclitaxel, a top coat layer may be advantageous in order to prevent premature drug loss during the device delivery process before deployment at the target site, since hydrophilic small molecules sometimes release drug too easily. The chemical compounds herein rapidly elute drug off the balloon during deployment at the target site.
Mixtures or combinations of a surfactant and a water-soluble small molecule confer the advantages of both additives. The water insoluble drug often has a poor compatibility with highly water-soluble chemical compounds, and the surfactant improves compatibility. […] The surfactant reduces drug loss during transit to a target site. The water-soluble chemical compound improves the release of drug off the balloon and absorption of the drug in the tissue.

[6] = octanol/water; cited from earlier work

albumin, sequence (P02768 25-609): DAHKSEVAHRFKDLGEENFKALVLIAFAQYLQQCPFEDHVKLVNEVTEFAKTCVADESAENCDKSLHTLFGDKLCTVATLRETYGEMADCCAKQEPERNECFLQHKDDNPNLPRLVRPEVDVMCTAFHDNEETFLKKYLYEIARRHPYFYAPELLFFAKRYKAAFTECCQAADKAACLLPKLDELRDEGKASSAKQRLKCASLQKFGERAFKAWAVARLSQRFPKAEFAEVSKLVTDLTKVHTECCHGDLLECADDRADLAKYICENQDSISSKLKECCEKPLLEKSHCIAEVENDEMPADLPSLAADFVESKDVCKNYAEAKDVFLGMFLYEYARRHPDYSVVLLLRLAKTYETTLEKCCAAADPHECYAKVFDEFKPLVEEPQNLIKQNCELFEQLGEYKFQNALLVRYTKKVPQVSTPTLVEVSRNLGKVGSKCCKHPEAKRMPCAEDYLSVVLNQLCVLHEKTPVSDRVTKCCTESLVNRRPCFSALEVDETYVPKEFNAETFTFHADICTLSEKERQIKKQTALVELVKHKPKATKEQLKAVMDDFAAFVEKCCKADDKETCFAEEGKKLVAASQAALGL

CO[C@H]1C[C@@H]2CC[C@@H](C)[C@@](O)(O2)C(=O)C(=O)N2CCCC[C@H]2C(=O)O[C@H]([C@H](C)C[C@@H]2CC[C@@H](O)[C@H](OC)C2)CC(=O)[C@H](C)/C=C(\C)[C@@H](O)[C@@H](OC)C(=O)[C@H](C)C[C@H](C)/C=C/C=C/C=C/1C [rapamycin]
protein bound [1]: 92%
protein bound primarily to albumin [2]: 97%

O=C(O)c1ccccc1 [benzoic acid]
reaction with paclitaxel [3]: reacted with paclitaxel
stability under ethylene oxide sterilization, heating, and aging process ([3]; experimentally): not stable

NC(=O)c1cccnc1 [niacinamide]
water and ethanol solubility ([4]; in words): very high

CC(=O)O[C@H]1C(=O)[C@@]2(C)[C@H]([C@H](OC(=O)c3ccccc3)[C@]3(O)C[C@H](OC(=O)[C@H](O)[C@@H](NC(=O)c4ccccc4)c4ccccc4)C(C)=C1C3(C)C)[C@]1(OC(C)=O)CO[C@@H]1C[C@@H]2O [paclitaxel, reference compound]
increase of solubility in PBS with the addition of BSA ([4]; PBS, BSA added): over 20 fold

O=C1O[C@H](CO)[C@@H](O)[C@H]1O [ribonic acid lactone]
drug absorption by tissue / drug levels in tissue [5]: unexpectedly high

O=C1O[C@H](CO)[C@@H](O)[C@H](O)[C@H]1O [gluconolactone]
drug absorption by tissue / drug levels in tissue [5]: unexpectedly high

Sudan Red
solubility in aqueous solvent ([4]; in words): insoluble

COc1ccc(O)c(C(C)(C)C)c1 [Butylated hydroxyanisole (BHA), Butylated hydroxyanisole]
log P [6]: 1.31

OCCNCCO [diethanolamine]
survival of ethylene oxide sterilization process [3]: do not necessarily survive
reaction with paclitaxel [3]: reacted with paclitaxel

PEG-20 sorbitan monolaurate [Tween 20]
log P [6]: about 3.0

Cc1ncc(C[n+]2csc(CCO)c2C)c(N)n1 [thiamine]
water and ethanol solubility ([4]; in words): very high

O=C1O[C@H]([C@@H](O)CO)C(O)=C1O [ascorbic acid]
reaction with paclitaxel [3]: reacted with paclitaxel

O=C(O)/C=C\C(=O)O [maleic acids]
water and ethanol solubility ([4]; in words): very high
